Reference: US20260272915A1, “PHARMACEUTICAL COMPOSITION FOR TREATING, PREVENTING, OR MANAGING BILIRUBIN-INDUCED NEUROLOGICAL DYSFUNCTION, PSYCHIATRIC DISORDERS ASSOCIATED WITH JAUNDICE, OR PSYCHIATRIC DISORDERS CAUSED BY BILIRUBIN UDP-GLUCURONOSYLTRANSFERASE GENE MUTATIONS” (priority 2023, published 2026)

What was measured:
Format in all cases: in vivo, rat
[1] = system: Gunn rats; test: Startle response prepulse inhibition (PPI) test; conditions: 0.3 mg/kg subcutaneous, 80 dB prepulse
Protocol: Eltoprazine (E1357, TCI), which is one of 5-HT1A/1B receptor agonists, was dissolved in a physiological saline solution. Only a solvent, 0.3 mg/kg of eltoprazine, or 1 mg/kg of eltoprazine was administered subcutaneously to Gunn rats at 9 to 10 weeks of age. For control, only a solvent was administered to Wistar rats as normal rats. One hour after the administration, a startle response prepulse inhibition (PPI) test was performed. The PPI test was conducted using the SR-LAB-Startle Response System (San Diego Institute, USA). Each rat subjected to the measurement was placed in a measurement chamber and acclimated with a 65 dB background white noise for 5 minutes before the start of stimulation. The startle response to a 120 dB auditory stimulation was measured using a piezoelectric sensor attached to the bottom of the chamber. The test session consisted of a total of 50 randomized trials, including no-stimulus (white noise only), 20 ms of 120 dB pulse stimulation, and stimulation with 20 ms of 70 dB or 80 dB prepulse 100 ms before the 120 dB pulse. The interval between the trials was 20 to 60 seconds (average: 40 seconds). The percentage PPI was calculated using the following formula: 100−[(startle response to prepulse-pulse stimulation trial−no-stimulation trial)/(pulse-alone trial−no-stimulation trial)×100].

[2] = system: jaundice model rats (Gunn rats); test: Open field test; conditions: for Effect on number of grooming behaviors of Gunn rats (in words) / Effect on number of rearing behaviors of Gunn rats (in words) / Effect on spontaneous activity amount of Gunn rats (in words): compared with normal (Wistar) rats; for Spontaneous Activity Amount, Average / Number of Rearing Behaviors, Average / Number of Grooming Behaviors, Average: Gunn rats (j/j)
Protocol: Eltoprazine (E1357, TCI), which is one of the 5-HT1A/1B receptor agonists, was dissolved in an arbitrary solvent. 0.3 mg/kg of eltoprazine was subcutaneously administered to jaundice model rats (Gunn rats) at 9 to 10 weeks of age. Further, as control groups, only a solvent was subcutaneously administered to Gunn rats and Wistar rats at 9 to 10 weeks of age. Further, as a comparison group, 8OH-DPAT (O415005, FUJIFILM Wako Pure Chemical Corporation), which is one of 5-HT1A receptor agonists, was dissolved in an arbitrary solvent, and 1 mg/kg thereof was subcutaneously administered to Gunn rats. After placing each rat in its home cage for 60 minutes, an open field test was conducted for 60 minutes using the Scanet MV-40 (Melquest Ltd.). The spontaneous activity amount and the number of rearing behaviors were measured for each rat by counting how many times the rat crossed the center evenly spaced. The number of grooming behaviors was counted by visual inspection.
Eltoprazine (E1357, TCI), which is one of the 5-HT1A/1B receptor agonists, was dissolved in an arbitrary solvent. 0.3 mg/kg of eltoprazine was subcutaneously administered to jaundice model rats (Gunn rats) at 9 to 10 weeks of age. Further, as control groups, only a solvent was subcutaneously administered to Gunn rats and Wistar rats at 9 to 10 weeks of age. Further, as a comparison group, CGS12066A (Sigma-Aldrich Co. LLC), which is one of 5-HT1B receptor agonists, was dissolved in an arbitrary solvent, and 1 mg/kg thereof was subcutaneously administered to Gunn rats. After placing each rat in its home cage for 60 minutes, an open field test was conducted for 60 minutes using the Scanet MV-40 (Melquest Ltd.). The spontaneous activity amount and the number of rearing behaviors for each rat were measured by counting how many times the rat crossed the center evenly spaced. The number of grooming behaviors was counted by visual inspection.

[3] = system: Gunn rats; test: Social interaction test; conditions: for Attacking Behavior, Average / Following Behavior, Average / Sniffing Behavior/Grooming Behavior, Average: Gunn rats (j/j), 1 h after administration, 10 min recording; for Sniffing Behavior/Grooming Behavior, Average: duration of sniffing or grooming the partner
Protocol: Eltoprazine (E1357, TCI), which is one of 5-HT1A/1B receptor agonists, was dissolved in a physiological saline solution. Only a solvent, 0.3 mg/kg of eltoprazine, or 1 mg/kg of eltoprazine was administered subcutaneously to Gunn rats at 9 to 10 weeks of age. For control, only a solvent was administered to Wistar rats as normal rats. One hour after the administration, two rats of the same type (same drug, same dose, same genetic type) were placed together in a single cage, and their behaviors were video-recorded from above for 10 minutes. The recorded video was visually analyzed, and the number of behaviors of following the partner, the attacking behavior, and the duration of sniffing or grooming the partner were measured.

[4] = 0.3 mg/kg or 1 mg/kg subcutaneous, compared with normal rats

In the case of `c1cc2c(c(N3CCNCC3)c1)OCCO2` [eltoprazine, 5-(piperazin-1-yl)-2,3-dihydro-1,4-benzodioxine], the “Effect on percentage PPI of Gunn rats (in words)” value [1] was “tendency to improve”, the “Percentage PPI, Average” value ([1]; 120 dB pulse, Gunn rats (j/j), 1 h after administration) was 63.6% and the “Effect on number of grooming behaviors of Gunn rats (in words)” value ([2]; 0.3 mg/kg subcutaneous) was “levels comparable to those of normal rats”. For the same compound, the “Effect on number of rearing behaviors of Gunn rats (in words)” value ([2]; 0.3 mg/kg subcutaneous) was “levels comparable to those of normal rats”, the “Effect on spontaneous activity amount of Gunn rats (in words)” value (shortened to “Effect on spontaneous activity amount”) ([2]; 0.3 mg/kg subcutaneous) was “levels comparable to those of normal rats” and the “Spontaneous Activity Amount, Average” value ([2]; Table 2, 0.3 mg/kg subcutaneous, 60 min home cage then 60 min open field) was 4640 count. For the same compound, the “Number of Rearing Behaviors, Average” value ([2]; Table 3, 0.3 mg/kg subcutaneous, 60 min open field) was 61.5 times, the “Number of Grooming Behaviors, Average” value ([2]; Table 4, 0.3 mg/kg subcutaneous, 60 min open field, visual inspection) was 8.5 count and the “Spontaneous Activity Amount, Average” value ([2]; Table 5, 0.3 mg/kg subcutaneous, 60 min open field) was 4640 count. For the same compound, the “Number of Rearing Behaviors, Average” value ([2]; Table 6, 0.3 mg/kg subcutaneous, 60 min open field) was 61.5 count, the “Number of Grooming Behaviors, Average” value ([2]; Table 7, 0.3 mg/kg subcutaneous, 60 min open field) was 8.5 count and the “Effect on attacking behavior of Gunn rats (in words)” value [3, 4] was “levels comparable to those of normal rats”. For the same compound, the “Effect on duration of sniffing or grooming the partner in Gunn rats (in words)” value [3, 4] was “normal level”, the “Effect on following behavior of Gunn rats (in words)” value [3, 4] was “levels comparable to those of normal rats” and the “Attacking Behavior, Average” value ([3]; 0.3 mg/kg subcutaneous) was 2 count. The “Following Behavior, Average” value ([3]; 0.3 mg/kg subcutaneous) was 2.16 count, the “Attacking Behavior, Average” value ([3]; 1 mg/kg subcutaneous) was 0.16 count and the “Following Behavior, Average” value ([3]; 1 mg/kg subcutaneous) was 3.83 count. The “Sniffing Behavior/Grooming Behavior, Average” value ([3]; 0.3 mg/kg subcutaneous) was 52 count and the “Sniffing Behavior/Grooming Behavior, Average” value ([3]; 1 mg/kg subcutaneous) was 41.5 count.

`CN1CCN(c2nc3cc(C(F)(F)F)ccc3n3cccc23)CC1` [CGS12066A] was tested, and the “Effect on number of grooming behaviors of Gunn rats (in words)” value ([2]; 1 mg/kg subcutaneous) was “did not improve”, the “Effect on number of rearing behaviors of Gunn rats (in words)” value ([2]; 1 mg/kg subcutaneous) was “levels comparable to those of normal rats” and the “Effect on spontaneous activity amount” value ([2]; 1 mg/kg subcutaneous) was “levels comparable to those of normal rats”. The “Spontaneous Activity Amount, Average” value ([2]; Table 5, 1 mg/kg subcutaneous, 60 min open field) was 4030 count, the “Number of Rearing Behaviors, Average” value ([2]; Table 6, 1 mg/kg subcutaneous, 60 min open field) was 47 count and the “Number of Grooming Behaviors, Average” value ([2]; Table 7, 1 mg/kg subcutaneous, 60 min open field) was 19.6 count.

`CCCN(CCC)C1CCc2cccc(O)c2C1` (centres unmarked) [8OH-DPAT] was tested, and the “Effect on number of grooming behaviors of Gunn rats (in words)” value ([2]; 1 mg/kg subcutaneous) was “levels comparable to those of normal rats”, the “Effect on number of rearing behaviors of Gunn rats (in words)” value ([2]; 1 mg/kg subcutaneous) was “abnormal number of rearing behaviors” and the “Effect on spontaneous activity amount” value ([2]; 1 mg/kg subcutaneous) was “levels comparable to those of normal rats”. The “Spontaneous Activity Amount, Average” value ([2]; Table 2, 1 mg/kg subcutaneous, 60 min home cage then 60 min open field) was 2681 count, the “Number of Rearing Behaviors, Average” value ([2]; Table 3, 1 mg/kg subcutaneous, 60 min open field) was 0.3 times and the “Number of Grooming Behaviors, Average” value ([2]; Table 4, 1 mg/kg subcutaneous, 60 min open field, visual inspection) was 5.5 count.
